Reference: patent US20150164967A1, “Personal Care Products Containing Extracts of Rosemary” (Kemin Industries, Inc., priority 2013, published 2015)

Tested on: vesperlysine-like and pentosidine-like AGEs from albumin glycation
Assay: Inhibition of AGE formation from albumin glycation (BSA + D-ribose, fluorescence)
Format: biochemical, bovine
Protocol: Following solutions were prepared for the assay: Reagent A: Phosphate buffer pH 7.0: 0.03 M KH2PO4 and 0.03 M K2HPO4 in ultrapure water (Millipore® Synergy® UV); Reagent B: 1.3 mg/mL aminoguanidine hydrochloride in phosphate buffer; Reagent C: 32 mg/mL Rosamox-Z in phosphate buffer; Reagent D: 30 mg/mL Zemea® Propanediol in phosphate buffer; Reagent E: 30 mg/mL BSA in phosphate buffer; Reagent F: 1.5 M D-ribose in phosphate buffer.
All the diluted samples (Sample B1-B5) were used for the AGE reaction.
Samples C1-C5 were diluted from the sample stock (reagent C) solution. Samples C6-C9 were diluted from Sample C5. All the diluted samples (Sample C1-C9) were used for the AGE reaction. Test samples D were diluted the same way as test samples C.
(Following Sero, L. et al. (2013) Tuning a 96-Well Microtiter Plate Fluorescence-Based Assay to Identify AGE Inhibitors in Crude Plant Extracts. Molecules. 18, 14320-14339.) A 96-well plate was prepared as follows (each sample was prepared in triplicate): Blank wells—50 μL BSA stock (reagent E) solution and 100 μL phosphate buffer (reagent A); Negative control wells—50 μL BSA stock (reagent E) and 50 μL diluent (Reagent A) to three empty wells; Positive control wells—50 μL BSA stock (reagent E) and 50 μL Aminoguanidine hydrochloride samples (Sample B1-B5); All treatments—50 μL BSA stock (reagent E) and 50 μL treatments (Sample C1-C9 and D1-D9); 50 μL D-ribose solutions (Reagent F) were added to every well except the blank wells.
The plates were read for fluorescence at λexc 370 nm λem 440 nm for versperlysines-like AGEs and λexc 335 nm λem 385 nm for pentosidine like AGEs. The plate was wrapped with aluminum foil to avoid light exposure and incubated at 37° C. and read again after 24 hours.
% inhibition was calculated as ((control 24 hours−control 0 hours)−(treatment 24 hours−treatment 0 hours))/(control 24 hours−control 0 hours).
FIG. 10 is a chart of the inhibition effect of Rosamox-Z on the formation of vesperlysine-like and pentosidine-like AGEs from albumin glycation. […]

SMILES | inhibition effect for pentosidine-like AGEs (0-15 mg/mL, λexc 335 nm λem 385 nm, 24 h at 37° C.) | promoting effect for vesperlysines-like AGEs (0-15 mg/mL, λexc 370 nm λem 440 nm, 24 h at 37° C.) | predicted 1050 for these reactions (worked out from the Rosamox-Z value and 4% carnosic acid content)
[2H]C([2H])(O)C([2H])([2H])C([2H])([2H])O [Zemea® Propanediol, Propanediol] | around 10% | around 5% | 
CC(C)c1cc2c(c(O)c1O)[C@@]1(C(=O)O)CCCC(C)(C)[C@@H]1CC2 [carnosic acid] |  |  | 0.4 to 0.6 mg/mL
